Test results published in patent publication US20160272635A1, “SUBSTITUTED DIHYDROPYRIDO[3,4-B]PYRAZINONES AS DUAL INHIBITORS OF BET PROTEINS AND POLO-LIKE KINASES” (BAYER PHARMA AKTIENGESELLSCHAFT, priority 2013, published 2016).
Where two headings read alike, the source gives them in different places.

What was measured:
Plk-1 = target: T1, Plk-1 (Homo sapiens, UniProt P53350); test: Plk-1 enzyme assay (indirect HTRF kinase assay); type: biochemical
T1 construct: Recombinant fusion protein consisting of GST and Plk (kinase domain 33-345); MW 36 kDa; GST; made in house; host or cells: insect cells (Hi5)
Procedure: Recombinant fusion protein consisting of GST and Plk (kinase domain 33-345; MW 36 kDa, conc 0.8 μg/μl) expressed from insect cells (Hi5) and purified by glutathione Sepharose affinity chromatography and subsequent gel filtration (Superdex 75) is used for the kinase assay. Aliquots thereof are frozen in liquid nitrogen and stored at −80° C. and, after thawing, used only once.
The assay used is an indirect HTRF assay which employs the following materials and procedures. The substrate used for the kinase reaction is the biotinylated peptide Btn-Ahx-KKLNRTLSFAEPG-amide x TFA from Biosyntan, Sample No.: 6178.1 (C-terminus in amide form). This is an artificial sequence not derived from any known protein. 50 nl of the test compounds dissolved in 100% dimethyl sulphoxide (DMSO) (final concentrations: 0 μM and concentrations in the range of 0.001-20 μM) are pre-incubated with 2 μl Plk-1 enzyme working solution in working buffer [25 mM MgCl2; 1 mM DTT; 50 mM Hepes pH 7.0; 0.01% NP40; 1× Complete; 0.05% BSA] for 30 min. The kinase reaction is then initiated by addition of 3 μl of substrate solution [adenosine triphosphate (ATP) and 1.4 μM substrate peptide (biotin-Ttds-KKLNRTLSFAEPG-NH2)] in working buffer, and, after 30 min, stopped by addition of a stopper solution (100 mM EDTA, 100 mM Hepes pH 7.5, 800 mM potassium fluoride, 0.12% BSA, 0.4 μM SA-XLent (0.05 μM, from CIS bio international, Marcoule, France), Eu^3+ cryptate-conjugated rabbit anti-mouse IgG (1.5 nM; an anti-mouse IgG antibody labelled with europium cryptate from CIS bio international, Marcoule, France), 1 nM anti-phospho-serine kinase (a phospho-specific antibody from Upstate Biotechnology, Dundee, Scotland), and incubated at 4° C. overnight.
For the test at low ATP concentration, a 1.25 ng/μl Plk-1 working solution and 16.7 μM ATP are used, for the test at high ATP concentration, a 0.039 ng/μl Plk-1 working solution and 16.7 mM ATP are used.
The amount of phosphorylated substrate peptide is then determined by measuring the resonance energy transfer from europium-labelled antibody complex to streptavidine-XLent. To this end, the fluorescence emission at 620 nm and 665 nm is measured following excitation at 350 nm in an HTRF measuring instrument, e.g. Rubystar (BMG Labtechnologies, Offenburg, Germany) or Viewlux (Perkin-Elmer). The ratio of the emissions at 665 nm and at 620 nm is taken as a measure of the amount of phosphorylated substrate peptide. The data are normalized (enzyme reaction without inhibitor=0% inhibition, all other assay components, but no enzyme=100% inhibition), and IC50 values are calculated using a 4 parameter equation (minimum, maximum, IC50, Hill; Y=max+(min−max)/(1+(X/IC50)Hill)).

[1] = target: T2, BRD4 bromo domain 1 [BRD4(1)] (Homo sapiens, UniProt O60885); test: BRD4(1)/acetylated peptide H4 binding assay (TR-FRET); settings: inhibition of interaction between BRD4(1) and acetylated histone H4 peptide
T2 construct: N-terminally His6-tagged BRD4(1) (amino acids 67-152); made in house; host or cells: E. coli
Description: To assess the BRD4(1) binding strength of the substances described in this application, the ability thereof to inhibit the interaction between BRD4(1) and acetylated histone H4 in a dose-dependent manner was quantified.
For this purpose, a time-resolved fluorescence resonance energy transfer (TR-FRET) assay was used, which measures the binding between N-terminally His6-tagged BRD4(1) (amino acids 67-152) and a synthetic acetylated histone H4 (Ac-H4) peptide with sequence GRGK(Ac)GGK(Ac)GLGK(Ac)GGAK(Ac)RHGSGSK-biotin. The recombinant BRD4(1) protein produced in-house according to Filippakopoulos et al., Cell, 2012, 149:214-231 was expressed in E. coli and purified by means of (Ni-NTA) affinity and (Sephadex G-75) size exclusion chromatography. The Ac-H4 peptide can be purchased, for example, from Biosyntan (Berlin, Germany).
In the assay, typically 11 different concentrations of each substance (0.1 nM, 0.33 nM, 1.1 nM, 3.8 nM, 13 nM, 44 nM, 0.15 μM, 0.51 μM, 1.7 μM, 5.9 μM and 20 μM) were analysed as duplicates on the same microtitre plate. For this purpose, 100-fold concentrated solutions in DMSO were prepared by serial dilutions (1:3.4) of a 2 mM stock solution into a clear, 384-well microtitre plate (Greiner Bio-One, Frickenhausen, Germany). From this, 50 n1 were transferred into a black test plate (Greiner Bio-One, Frickenhausen, Germany). The test was started by the addition of 2 μl of a 2.5-fold concentrated BRD4(1) solution (final concentration typically 10 nM in the 5 μl of reaction volume) in aqueous assay buffer [50 mM HEPES pH 7.5, 50 mM sodium chloride (NaCl), 0.25 mM CHAPS and 0.05% serum albumin (BSA)] to the substances in the test plate. This was followed by a 10-minute incubation step at 22° C. for the pre-equilibration of putative complexes between BRD4(1) and the substances.
The mixture was then incubated in the dark at 22° C. for one hour and then at 4° C. for at least 3 hours and for no longer than overnight. The formation of BRD4(1)/Ac-H4 complexes was determined by the measurement of the resonance energy transfer from the streptavidin-Eu cryptate to the anti-6His-XL665 antibody present in the reaction. For this purpose, the fluorescence emission was measured at 620 nm and 665 nm after excitation at 330-350 nm in a TR-FRET measuring instrument, for example a Rubystar or Pherastar (both from BMG Lab Technologies, Offenburg, Germany) or a Viewlux (Perkin-Elmer). The ratio of the emissions at 665 nm and at 622 nm was taken as an indicator of the amount of BRD4(1)/Ac-H4 complexes formed.
The data (ratios) obtained were normalized, with 0% inhibition corresponding to the mean from the measurements for a set of controls (typically 32 data points) in which all the reagents were present. In these, in place of test substances, 50 nl of DMSO (100%) were used Inhibition of 100% corresponded to the mean from the measurements for a set of controls (typically 32 data points) in which all the reagents except BRD4(1) were present. The IC50 was determined by regression analysis based on a 4-parameter equation (minimum, maximum, IC50, Hill; Y=Max+(Min−Max)/(1+(X/IC50)Hill).

MOLM-13 cell line = test: MOLM-13 cell proliferation assay (alamarBlue); type: cell-based; settings: Homo sapiens; MOLM-13 cells, 96 hours incubation, inhibition of cell proliferation
Procedure: In accordance with the invention, the substances were tested for their ability to inhibit the proliferation of the MOLM-13 cell linie (Deutsche Sammlung far Mikroorganismen and Zellkulturen [German Collection of Microorganisms and Cell Cultures], ACC 554). Cell viability was determined by means of the alamarBlue® reagent (Invitrogen) in a Victor X3 Multilabel Reader (Perkin Elmer). The excitation wavelength was 530 nm and the emission wavelength […].
The MOLM-13 cells were shown at a density of 4000 cells/well in 100 μl of growth medium on 96-well microtitre plates. After overnight incubation at 37° C., the fluorescence values (CI values) were determined. The plates were then treated with various substance dilutions and incubated at 37° C. for 96 hours. Subsequently, the fluorescence values were determined (CO values). For the data analysis, the CI values were subtracted from the CO values and the results were compared between cells which had been treated with various dilutions of the substance or only with buffer solution. The IC50 values (substance concentration needed for 50% inhibition of cell proliferation) were calculated therefrom.

[2] = 10 μM ATP (low ATP concentration), read-out: IC50 [Plk-1] (10 μM ATP)
[3] = 10 mM ATP (high ATP concentration), read-out: IC50 [Plk-1] (10 mM ATP)

T1 sequence (P53350 33-345): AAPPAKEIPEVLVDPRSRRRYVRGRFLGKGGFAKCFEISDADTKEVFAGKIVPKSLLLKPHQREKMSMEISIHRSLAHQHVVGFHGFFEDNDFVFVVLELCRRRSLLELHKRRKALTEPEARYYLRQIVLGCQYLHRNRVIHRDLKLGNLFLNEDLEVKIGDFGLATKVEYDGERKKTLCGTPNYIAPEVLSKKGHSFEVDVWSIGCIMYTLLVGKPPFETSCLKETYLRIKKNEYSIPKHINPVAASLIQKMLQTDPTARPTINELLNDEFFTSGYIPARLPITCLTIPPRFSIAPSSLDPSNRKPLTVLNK

Row | IC50 (Plk-1; [2]) [nM] | IC50 [1] [nM] | IC50 (MOLM-13 cell line) [nM] | IC50 (Plk-1; [3]) [nM] | SMILES
1 | 8 | 199 | 61 | 17 | CCc1cc(C(=O)NC2CC2)cnc1Nc1cc2c(cn1)N(C)C(=O)[C@@H](CC)N2C1CCCC1 [Example 3, 6-{[(2R)-1-Cyclopentyl-2-ethyl-4-methyl-3-oxo-1,2,3,4-tetrahydropyrido[3,4-b]pyrazin-7-yl]amino}-N-cyclopropyl-5-ethylpyridine-3-carboxamide]
2 | – | 450 | 68 | 31 | CCC1C(=O)N(C)c2cnc(Nc3ncc(C(=O)NC4CC4)cc3OC)cc2N1C1CCCC1 (stereo not shown) [Example 4, 6-[(1-Cyclopentyl-2-ethyl-1,2,3,4-tetrahydro-4-methyl-3-oxopyrido[3,4-b]pyrazin-7-yl)amino]-N-cyclopropyl-5-methoxy-3-pyridinecarboxamide]
3 | 7 | 225 | 29 | 21 | CC[C@@H]1C(=O)N(C)c2cnc(Nc3ncc(C(=O)NC4CC4)cc3OC)cc2N1C1CCCC1 [Example 5, 6-[[(2R)-1-Cyclopentyl-2-ethyl-1,2,3,4-tetrahydro-4-methyl-3-oxopyrido[3,4-b]pyrazin-7-yl)amino]-N-cyclopropyl-5-methoxy-3-pyridinecarboxamide]
4 | – | 343 | 76 | 17 | CCc1cc(C(=O)N[C@@H]2CCCCNC2=O)cnc1Nc1cc2c(cn1)N(C)C(=O)[C@@H](CC)N2C1CCCC1 [Example 9, 6-{[(2R)-1-Cyclopentyl-2-ethyl-4-methyl-3-oxo-1,2,3,4-tetrahydropyrido[3,4-b]pyrazin-7-yl]amino}-5-ethyl-N-[(3R)-2-oxoazepan-3-yl]pyridine-3-carboxamide]

The next lines start with the compound.

Row | SMILES | IC50 (Plk-1; [2]) [nM] | IC50 [1] [nM] | IC50 (MOLM-13 cell line) [nM] | IC50 (Plk-1; [3]) [nM]
5 | COc1cc(C(=O)NC2CC2)cnc1Nc1cc2c(cn1)N(C)C(=O)C(C)N2C1CCCC1 (stereo not shown) [Example 1, 6-{[1-Cyclopentyl-2,4-dimethyl-3-oxo-1,2,3,4-tetrahydropyrido[3,4-b]pyrazin-7-yl]amino}-N-cyclopropyl-5-methoxypyridine-3-carboxamide] | 15 | 204 | 209 | –
6 | COc1cc(C(=O)NC2CC2)cnc1Nc1cc2c(cn1)N(C)C(=O)[C@@H](C)N2C1CCCC1 [Example 2, 6-{[(2R)-1-Cyclopentyl-2,4-dimethyl-3-oxo-1,2,3,4-tetrahydropyrido[3,4-b]pyrazin-7-yl]amino}-N-cyclopropyl-5-methoxypyridine-3-carboxamide] | 17 | 126 | 93 | –
7 | COc1cc(C(=O)NC2CCN(C)CC2)cnc1Nc1cc2c(cn1)N(C)C(=O)C(C)N2C1CCCC1 (stereo not shown) [Example 6, 6-[(1-Cyclopentyl-2,4-dimethyl-3-oxo-1,2,3,4-tetrahydropyrido[3,4-b]pyrazin-7-yl)amino]-5-methoxy-N-(1-methylpiperidin-4-yl)pyridine-3-carboxamide] | – | 243 | 114 | 19
8 | CC[C@@H]1C(=O)N(C)c2cnc(Nc3ncc(C(=O)NCC(F)(F)F)cc3OC)cc2N1C1CCCC1 [Example 7, 6-[[(2R)-1-Cyclopentyl-2-ethyl-1,2,3,4-tetrahydro-4-methyl-3-oxopyrido[3,4-b]pyrazin-7-yl]amino]-5-methoxy-N-(2,2,2-trifluoroethyl)-3-pyridinecarboxamide] | 11 | 276 | 80 | 30
9 | CC[C@@H]1C(=O)N(C)c2cnc(Nc3ncc(C(=O)NCCOC)cc3OC)cc2N1C1CCCC1 [Example 8, 6-[[(2R)-1-Cyclopentyl-2-ethyl-1,2,3,4-tetrahydro-4-methyl-3-oxopyrido[3,4-b]pyrazin-7-yl]amino]-5-methoxy-N-(2-methoxyethyl)-3-pyridinecarboxamide] | 9 | 333 | 72 | 22
10 | CC[C@@H]1C(=O)N(C)c2cnc(Nc3ncc(C(=O)NC4CCOCC4)cc3OC)cc2N1C1CCCC1 [Example 10, 6-[[(2R)-1-Cyclopentyl-2-ethyl-1,2,3,4-tetrahydro-4-methyl-3-oxopyrido[3,4-b]pyrazin-7-yl]amino]-5-methoxy-N-(tetrahydro-2H-pyran-4-yl)-3-pyridinecarboxamide] | – | 376 | 43 | 31
11 | CC[C@@H]1C(=O)N(C)c2cnc(Nc3ncc(C(=O)NC(C)(C)CO)cc3OC)cc2N1C1CCCC1 [Example 11, 6-[[(2R)-1-Cyclopentyl-2-ethyl-1,2,3,4-tetrahydro-4-methyl-3-oxopyrido[3,4-b]pyrazin-7-yl]amino]-N-(2-hydroxy-1,1-dimethylethyl)-5-methoxy-3-pyridinecarboxamide] | – | 393 | 74 | 57
